Experimental data: patent US6455567B1, “Method of treatment” (Pfizer Inc., priority 1994, dated 2002)

Assays:
[1] = tested on: vasodilation in the rat hind paw; assay: Vasodilation (skin blood flow) in the rat hind paw after saphenous nerve stimulation, method of Kajekar et al; type: in vivo; conditions: intravenous
Procedure: The test compound is administered intravenously at different doses and the results are recorded as the change in the increase in skin blood flow.

[2] = tested on: neurogenic inflammation in dura mater; conditions: in vivo; cited from earlier work
[3] = tested on: oedema in the rat hind paw; conditions: intravenous, saphenous nerve stimulation; cited from earlier work

CNS(=O)(=O)Cc1ccc2[nH]cc(C[C@H]3CCCN3C)c2c1 [CP-122,288, (R)-5-(methylaminosulphonylmethyl)-3-(N-methylpyrrolidin-2-ylmethyl)-1H-indole]
lowest dose with significant effect on the increase in skin blood flow (vasodilation) [1]: 2e-12 mol/kg
potency against neurogenic inflammation in dura mater [2]: exhibit potency against neurogenic inflammation
lowest administered amount with significant effect on ratio of plasma extravasation in the stimulated/unstimulated hind paw [3]: 2e-14 mol/kg

CNS(=O)(=O)Cc1ccc2[nH]cc(C[C@H]3CCCN3)c2c1 [CP-122,638, (R)-5-(methylaminosulphonylmethyl)-3-(pyrrolidin-2-ylmethyl)-1H-indole]
potency against neurogenic inflammation in dura mater [2]: exhibit potency against neurogenic inflammation
